Results on 54 molecules are retold here after a melting point compilation (Tetko et al.).

As a reminder, the melting point is the temperature of the solid-liquid transition. Take `COC(=O)CNC(=O)[C@H](NC(=O)[C@@H](CSC(c1ccccc1)(c1ccccc1)c1ccccc1)NC(=O)[C@@H](C)NC(=O)OCC1c2ccccc2-c2ccccc21)C(C)C`: the melting point lay within 195 to 197 °C.

`CNC(=O)OC(COc1ccc(C(C)(C)c2ccc(OCC(CN3C(=O)NC4(CC(C)(C)NC(C)(C)C4)C3=O)OC(=O)NC)cc2)cc1)CN1C(=O)NC2(CC(C)(C)NC(C)(C)C2)C1=O` (centres undefined) gave a melting point of 238 to 242 °C.

Molecule `CCC(C=CC(C)C1CCC2C3CC=C4CC(OC(=O)N(CC(O)COC(c5ccccc5)(c5ccccc5)c5ccccc5)C(C)C)CCC4(C)C3CCC12C)C(C)C` (centres undefined) yielded a melting point of 75 to 76 °C.

`Nc1cc(C(F)(F)C(F)(F)OC(F)(F)C(F)(F)OC(F)(F)C(F)(F)OC(F)(F)C(F)(F)C(F)(F)C(F)(F)C(F)(F)OC(F)(F)C(F)(F)c2ccc(O)c(N)c2)ccc1O` gave a melting point of 92 to 95 °C.

In turn, `Nc1n[nH]cc1C(=O)O` returned a melting point of 135 °C.

`CCCCCCc1cc(S(C)(=O)=NS(=O)(=O)c2ccc(C)cc2)ccc1O` (centres undefined): the melting point was in the range of 109 to 110 °C.

In turn, `N#Cc1ccc(C=Cc2ccc(OCc3ccc4ccccc4n3)cc2)cc1` gave a melting point of 116 to 118 °C.

For `O=C(CC(=O)c1cc(F)c(F)cc1F)OCc1ccc(OCCCCCCCCCCC2c3c(c4ccccc4c4ccccc34)-c3c2c2ccccc2c2ccccc32)cc1`, the melting point is 58 to 60 °C.

In turn, `CCCCCCCCCCCCCCCCOC(=O)c1ccc(C(=O)N(CCCCCCCCCCCCCCCC)OCCCCCCCCCCCCCCCC)nc1` had a melting point of 93 to 95 °C.

For `Cc1ccc(C(=O)OCCN(C)C)cc1-n1c(C)cc(OCc2ccc(F)cc2CNC(=O)Nc2cc(C(C)(C)C)nn2-c2cccc(OCCO)c2)c(Cl)c1=O`, the melting point lay within 158 to 160 °C.

Take `CCCCCCCCCCCCN(CCCCCCCCCCCC)c1ccc2c(c1)O/C(=C1\Oc3cc(N(CCCCCCCCCCCC)CCCCCCCCCCCC)ccc3C1=O)C2=O`: the melting point was 105 °C.

Take `CC(=O)OCC1OC(OC2C(COC(C)=O)OC(OC3C(CO)OC(OCCBr)C(O)C3O)C(OC(C)=O)C2OC(C)=O)C(OC(C)=O)C(OC(C)=O)C1OC(C)=O` (centres undefined): the melting point fell in the range of 178 to 180 °C.

For the molecule `NS(=O)(=O)c1ccc(-c2c(-c3ccccc3)noc2CO[N+](=O)[O-])cc1`, the melting point was in the range of 47 to 50 °C.

In turn, `O=C(OCc1ccc(OCCCCCCCCCCC2c3c(c4ccccc4c4ccccc34)-c3c2c2ccccc2c2ccccc32)cc1)C(=CNC1CC1)C(=O)c1cc(F)c(F)cc1F` showed a melting point of 49 to 51 °C.

Turning to `Cc1ccn2c(-c3ccnc(-c4ccc(OCc5cn(C)cn5)cc4)c3)c(-c3cccc(C)n3)nc2c1`, the melting point turned out to be 217 °C.

For `Cc1cc(C)c(N2c3ccccc3S(=O)(=O)c3cc(C=Cc4ccc(-c5ccc(C=Cc6ccc7c(c6)S(=O)(=O)c6ccccc6N7c6c(C)cc(C)cc6C)cc5)cc4)ccc32)c(C)c1`, the melting point is > 350 °C.

For `CCCCCCc1cc(C=C2C(=O)N(CC(CC)CCCC)C(=O)C(C#N)=C2C)sc1-c1ccc(-c2ccc(-c3sc(-c4ccc(N(c5ccccc5)c5ccccc5)cc4)cc3CCCCCC)s2)s1` (centres undefined), the melting point fell in the range of 153 to 158 °C.

Regarding `O=C(O)CCC(Cc1cccc(Cl)c1)(C(=O)C=Cc1ccc(Cl)cc1)c1ccccc1` (centres undefined), the melting point fell in the range of 137 to 139 °C.

For `CCOC(=O)c1cn(C23CC(C2)C3)c2c(F)c(F)c(F)cc2c1=O`, the melting point was in the range of 176 to 178 °C.

`CC[C@H](C)[C@H](NC(=O)OCC1c2ccccc2-c2ccccc21)C(=O)N[C@@H](Cc1ccc(OC(C)(C)C)cc1)C(=O)N[C@@H](C)C(=O)NCc1c(OC)ccc2c1Oc1c(ccc(OC)c1CC(=O)OCc1ccccc1)C2(C)C`: the melting point lay in the range of 218 to 220 °C.

The molecule `CN(c1cccc2cc(C3=NCC(C(=O)N4CCOCC4)S3)[nH]c12)S(=O)(=O)c1cccs1` (centres undefined) had a melting point of 238 to 239 °C.

On to `Cc1ccc(-c2c(-c3ccc(S(N)(=O)=O)cc3)[nH]c3ccccc23)cc1C`, for which the melting point is 251 to 253 °C.

On to `CC(C)(c1ccc(OCC(O)CN2C(=O)NC3(CC(C)(C)N(CCO)C(C)(C)C3)C2=O)cc1)c1ccc(OCC(O)CN2C(=O)NC3(CC(C)(C)N(CCO)C(C)(C)C3)C2=O)cc1` (centres undefined), for which the melting point was 233 to 236 °C.

In turn, `O=C(NCC(O)CO)c1c(I)c(C(=O)NCC(O)CO)c(I)c(N2C(=O)COCC2CO)c1I` (centres undefined) yielded a melting point of 227 to 230 °C.

`CC(C)[Si](OC(=O)Cc1cc(I)c(Oc2cc(I)c(O)c(I)c2)c(I)c1)(C(C)C)C(C)C` showed a melting point of 146 °C.

The molecule `CC(C)(C)c1cc2c(c(C(C)(C)C)c1)OP(OP1Oc3c(cc(C(C)(C)C)cc3C(C)(C)C)Cc3cc(C(C)(C)C)cc(C(C)(C)C)c3O1)Oc1c(cc(C(C)(C)C)cc1C(C)(C)C)C2` yielded a melting point of 249 to 252 °C.

`CCOCc1nc2c(N)nc3cc(Br)ccc3c2n1CC1CCN(C(=O)CC(C)C)CC1`: the melting point lay within 199 to 200 °C.

As for `Cc1ccc(O)c(Br)c1`, the melting point was 16 °C.

`O=C(Cc1ccccc1)Oc1n[nH]c(=O)c2nc3cc(Cl)ccc3c(O)c12` registered a melting point of 278 to 282 °C.

Regarding `Cc1ccc(S(=O)(=O)N2CCN(S(=O)(=O)c3ccc(C)cc3)CCN(S(=O)(=O)c3ccc(C)cc3)CC(C)N(S(=O)(=O)c3ccc(C)cc3)CCN(S(=O)(=O)c3ccc(C)cc3)CC2)cc1` (centres undefined), the melting point fell in the range of 245 to 247 °C.

Regarding `CC1(C)CC(C(O)CNc2nc(NCCCCCCNc3nc(NCC(O)C4CC(C)(C)NC(C)(C)C4)nc(NCC(O)C4CC(C)(C)NC(C)(C)C4)n3)nc(NCC(O)C3CC(C)(C)NC(C)(C)C3)n2)CC(C)(C)N1` (centres undefined), the melting point is 165 to 168 °C.

`[C-]#[N+]CCCS(=O)(=O)c1ccc(C)cc1` registered a melting point of 37 to 38 °C.

For the molecule `CS(C)(=O)=NC(=O)c1cc(Oc2ccc(C(F)(F)F)cc2Cl)ccc1[N+](=O)[O-]`, the melting point was 122 °C.

`O=C(OI(OC(=O)C(F)(F)F)C(F)(F)C(F)(F)C(F)(F)C(F)(F)C(F)(F)C(F)(F)C(F)(F)C(F)(F)C(F)(F)C(F)(F)F)C(F)(F)F` had a melting point of 83 to 88 °C.

`CC(C)[C@@H](NC(=O)[C@@H](CSC(c1ccccc1)(c1ccccc1)c1ccccc1)NC(=O)[C@@H](C)NC(=O)C[C@H](O)/C=C/CCSC(c1ccccc1)(c1ccccc1)c1ccccc1)C(=O)NCC(=O)O` had a melting point of 191 to 193 °C.

With `CCCCCCCCCCCCCCCCS(=O)(=O)Nc1cccc2ccc(O)c(NS(=O)(=O)c3ccc(NC(C)=O)c4c(O)c(N=Nc5ccccc5OC)ccc34)c12`, the melting point was in the range of 177 to 180 °C.

Molecule `CCCCN(Cc1c(C)cc(C(C)(C)C)c(O)c1C)S(=O)(=O)c1ccc(-c2ccc(S(=O)(=O)N(CCCC)Cc3c(C)cc(C(C)(C)C)c(O)c3C)cc2)cc1` showed a melting point of 225 to 227 °C.

`CN=S(=O)(NC(=O)Nc1nc(OC)cc(OC)n1)c1ccccc1Br` (centres undefined): the melting point was in the range of 120 to 125 °C.

`CC=C(C)C(=O)NC(c1ccccc1)C(O)C(=O)OC1CC2(O)C(OC(=O)c3ccccc3)C3C4(OC(C)=O)COC4CC(O)C3(C)C(=O)C(OC(C)=O)C(=C1C)C2(C)C` (centres undefined) came in with a melting point of 184 to 186 °C.

`CCN(c1nc(OCCOC(=O)CCC(=O)OCCOc2nc(N(CC)C3CC(C)(C)NC(C)(C)C3)nc(N(CC)C3CC(C)(C)NC(C)(C)C3)n2)nc(N(CC)C2CC(C)(C)NC(C)(C)C2)n1)C1CC(C)(C)NC(C)(C)C1` gave a melting point of 85 °C.

`FC(F)(F)C(F)(F)C(F)(F)C(F)(F)C(F)(F)C(F)(F)C(F)(F)C(F)(F)CCC1(CCC(F)(F)C(F)(F)C(F)(F)C(F)(F)C(F)(F)C(F)(F)C(F)(F)C(F)(F)F)c2cc(Br)ccc2-c2ccc(Br)cc21` had a melting point of 130 to 131 °C.

Consider `CCN(CC)CCN=S(=O)(c1ccccc1)c1cccs1` (centres undefined), for which the melting point was found to be 116 °C.

`O=c1cc(-c2ccc(OCCOCCOCCOCCOCCOCCOCCOCCOCCOc3ccc(-c4cc(=O)c5c(O)cc(O)cc5o4)cc3)cc2)oc2cc(O)cc(O)c12`: the melting point was in the range of 135 to 137 °C.

The molecule `COc1cc(OC)c(/C=C/C(c2ccc(OC)c(NCCC(=O)O)c2)S(=O)(=O)C(/C=C/c2c(OC)cc(OC)cc2OC)c2ccc(OC)c(NCCC(=O)O)c2)c(OC)c1` (centres undefined) gave a melting point of 156 to 158 °C.

The molecule `[C-]#[N+]Cc1c(OC)cc(OC)cc1OC` showed a melting point of 107 to 109 °C.

In turn, `CC(C)COc1c(-c2ccc(S(N)(=O)=O)c(F)c2)cnn(-c2cccc(Cl)c2)c1=O` registered a melting point of 157 to 159 °C.

`CC(C)OC(=O)C(CCC(C(=O)OC(C)C)N1CCN(CC(=O)OC(C)(C)C)CCN(C=O)CCN(CC(=O)OC(C)(C)C)CC1)N1CCN(CC(=O)OC(C)(C)C)CCN(C=O)CCN(CC(=O)OC(C)(C)C)CC1` (centres undefined) returned a melting point of 125 to 127 °C.

Regarding `C=C(C)C(=O)OCCCCCCCCCCCOc1ccc(-c2nc(-c3ccccc3)nc(-c3ccc(OCCCCCCCCCCCOC(=O)C(=C)C)cc3O)n2)c(O)c1`, the melting point was determined as 68.3 °C.

Regarding `O=[N+]([O-])c1cc(Sc2ccc(-c3c(S(=O)c4ccc(Cl)c([N+](=O)[O-])c4-c4ccc(Sc5ccc(Cl)c([N+](=O)[O-])c5)cc4)ccc(Cl)c3[N+](=O)[O-])cc2)ccc1Cl`, the melting point was 144 to 146 °C.

`CCCCCCCCCCCCCCCCCCOC(=O)c1cc(C(C)(C)C)c(O[Si](C)(C)Oc2c(C(C)(C)C)cc(C(=O)OCCCCCCCCCCCCCCCCCC)cc2C(C)(C)C)c(C(C)(C)C)c1` came in with a melting point of 68.5 to 69.5 °C.

Molecule `CC(C)[C@H](NC(=O)N(C)Cc1nc2ccccc2[nH]1)C(=O)N[C@@H](Cc1ccccc1)C[C@H](O)[C@H](Cc1ccccc1)NC(=O)[C@@H](NC(=O)N(C)Cc1nc2ccccc2[nH]1)C(C)C` yielded a melting point of 150 to 152 °C.

The molecule `CC(=O)OCC1OC(SCCCCCCOC2CCC3(C)C(=CCC4C3CCC3(C)C(C(C)CCCC(C)C)CCC43)C2)C(OC(C)=O)C(OC(C)=O)C1OC(C)=O` (centres undefined) registered a melting point of 103 to 104 °C.

In the case of `CCCCCCCCCCCCCCCCCCN(CCCCCCCCCCCCCCCCCC)C(=O)c1cc(NS(=O)(=O)c2ccc(Cl)nc2)c2ccccc2c1O`, the melting point is 80 to 83 °C.

In turn, `FC(F)(F)C(F)(F)C(F)(F)C(F)(F)C(F)(F)C(F)(F)C(F)(F)C(F)(F)CCCCCCC1(CCCCCCC(F)(F)C(F)(F)C(F)(F)C(F)(F)C(F)(F)C(F)(F)C(F)(F)C(F)(F)F)c2cc(Br)ccc2-c2ccc(Br)cc21` displayed a melting point of 82 to 83 °C.
